Data: publication PMC12039421 (Animal Cells and Systems, 2025)

How the values were obtained:
human ERα-LBD = molecular target: T1, human ERα-LBD (Homo sapiens, UniProt P03372); assay: biochemical; format: binding
T1 sequence (P03372 304-554): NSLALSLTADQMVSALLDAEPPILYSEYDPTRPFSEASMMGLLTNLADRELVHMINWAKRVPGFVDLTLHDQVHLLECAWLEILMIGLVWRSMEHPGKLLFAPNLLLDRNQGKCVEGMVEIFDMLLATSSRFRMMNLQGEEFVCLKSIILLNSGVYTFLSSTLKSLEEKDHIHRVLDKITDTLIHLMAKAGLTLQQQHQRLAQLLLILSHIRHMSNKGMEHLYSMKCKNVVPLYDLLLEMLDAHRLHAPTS

human ERβ-LBD = human ERβ-LBD (Homo sapiens, UniProt Q92731); assay: Isothermal titration calorimetry; format: binding
ERα [1] = settings: cited from earlier work
ERα [2] = settings: ref ICCVAM [2003]; cited from earlier work
[3] = ITC, 25 °C, one binding site model

Sequence of human ERβ-LBD (Q92731 264-498): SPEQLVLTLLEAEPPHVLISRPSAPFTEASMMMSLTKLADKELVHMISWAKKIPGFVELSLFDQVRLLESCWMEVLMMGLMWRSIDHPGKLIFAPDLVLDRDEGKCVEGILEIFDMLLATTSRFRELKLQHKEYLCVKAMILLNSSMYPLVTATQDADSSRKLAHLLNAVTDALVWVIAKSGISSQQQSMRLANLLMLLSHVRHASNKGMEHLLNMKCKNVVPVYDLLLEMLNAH

CCC(C)(c1ccc(O)cc1)c1ccc(O)cc1 [Bisphenol B]
Kd (human ERα-LBD): 112 µM
Kd (human ERβ-LBD): 51.3 µM

CC(C)(C)CC(C)(C)c1ccc(O)cc1 [4-tert-Octylphenol]
Kd (human ERβ-LBD): 15.9 µM

CC(C)C(=O)Nc1ccc([N+](=O)[O-])c(C(F)(F)F)c1 [Flutamide]
Kd (ER α) (human ERα-LBD; [3]): no binding
Kd (ER β) (human ERβ-LBD; [3]): no binding
activity in previous TG 455 (in words) (ERα [1]; previous TG 455, ref Zacharia [2017]): no activity

C[C@]12CC[C@H]3[C@@H](CCC4=CC(=O)CC[C@@]43C)[C@@H]1CC[C@@H]2O [testosterone]
ER binding in TG 493 (in words) (ERα [2]): may bind to the ER
transcriptional response in TG 455 (in words) (ERα [1]; ref ICCVAM [2003]): fails to induce downstream transcriptional responses
